We go through one compound from publication PMC10194981, “Chemosensory protein regulates the behavioural response of Frankliniella intonsa and Frankliniella occidentalis to tomato zonate spot virus–Infected pepper (Capsicum annuum)” (PLOS Pathogens, 2023).

One test deals with FoccCSP-Val132Ala (Frankliniella occidentalis, UniProt G4Y3X1, V132A). Kind of test: Fluorescence (1-NPN) binding and competitive binding assay, FoccCSP mutant (negative control residue). Here is the method: (§1) The binding affinity of FintCSP1 and FoccCSP to the fluorescent probe N-phenyl-1-naphthylamine (1-NPN) was tested using a Spectramax M2 fluorescence spectrometer (Molecular Devices, USA) as reported previously. Volatile compounds and 1-NPN were first dissolved to a concentration of 1 mM in HPLC-grade methanol and dissolved to their indicated final concentration (2–20 μM) to titrate 2 μM protein solutions resuspended in 50 mM Tris-HCl (pH 7.4). The 1-NPN/FintCSP1 or 1-NPN/FoccCSP mixture was excited at 280 nm, and the emission spectra were recorded at 415 nm. The binding constants (Kd) of FintCSP1 or FoccCSP to 1-NPN were calculated by Scatchard analysis using Prism 5 software (GraphPad, La Jolla, CA, USA). Assuming a protein activity of 100% and that the volatile compound binds to the protein in a 1:1 ratio at saturation, the dissociation constants (Ki) of FintCSP1 or FoccCSP for each ligand were calculated according to the IC50 (the concentration when the ligand replaces 50% of the probe) value of the volatile compounds. The Ki values were calculated according to the following equation: Ki = [IC50]/(1 + [1-NPN]/K1-NPN), where [1-NPN] is the free concentration of 1-NPN, and K1-NPN is the Kd of the 1-NPN/FintCSP1 or 1-NPN/FoccCSP.
(§2) To verify the key amino acids of FintCSP1 and FoccCSP that bind to cis-3-hexenal, six amino acid residues of FintCSP1 were mutated (Lys26Ala, Phe27Ala, Thr28Ala, Glu67Ala, Ser84Ala, and the negative control residue Val132Ala) and nine amino acid residues of FoccCSP were mutated (Lys26Ala, Phe27Ala, Thr28Ala, Thr29Ala, Tyr31Ala, Asp64Ala, Glu67Ala, Gln87Ala, and the negative control residue Val132Ala) with the Fast Mutagenesis System Kit (Transgen Biotech, Beijing, China) using the pET-30a/FintCSP1 and pET-30a/FoccCSP plasmid DNA as template, respectively. Specific primers were designed using Primer Premier 5.0 according to the instructions of the Fast Mutagenesis System Kit (S1 Table). After validation by sequencing, each recombinant variant protein was produced and purified as described above, and their binding affinity to cis-3-hexenal was measured as described above.

The target in the next test is FintCSP1-Thr28Ala (Frankliniella intonsa, UniProt A0A891LVF4, T28A). The test is described as follows: Fluorescence (1-NPN) binding and competitive binding assay, FintCSP1 mutant. The protocol: as §1, with “Volatile compounds and 1-NPN were first dissolved to a concentration of 1 mM in HPLC-grade methanol and dissolved to their indicated final concentration (2–20 μM) to titrate 2 μM protein solutions resuspended in 50 mM Tris-HCl (pH 7.4).” left out
as §2

In the next test the target is FintCSP1-Glu67Ala (Frankliniella intonsa, UniProt A0A891LVF4, E67A). Described as above. The protocol: as §1, with “Volatile compounds and 1-NPN were first dissolved to a concentration of 1 mM in HPLC-grade methanol and dissolved to their indicated final concentration (2–20 μM) to titrate 2 μM protein solutions resuspended in 50 mM Tris-HCl (pH 7.4).” left out
as §2

The target in another test is FintCSP1-Lys26Ala (Frankliniella intonsa, UniProt A0A891LVF4, K26A). The description is as above. The protocol: as §1, with “Volatile compounds and 1-NPN were first dissolved to a concentration of 1 mM in HPLC-grade methanol and dissolved to their indicated final concentration (2–20 μM) to titrate 2 μM protein solutions resuspended in 50 mM Tris-HCl (pH 7.4).” left out
as §2

Another test deals with FintCSP1-Phe27Ala (Frankliniella intonsa, UniProt A0A891LVF4, F27A). The description is as above. The protocol:
as §1, with “Volatile compounds and 1-NPN were first dissolved to a concentration of 1 mM in HPLC-grade methanol and dissolved to their indicated final concentration (2–20 μM) to titrate 2 μM protein solutions resuspended in 50 mM Tris-HCl (pH 7.4).” left out
as §2

FintCSP1-Phe27Ala, sequence (A0A891LVF4 entry or part of it F27A): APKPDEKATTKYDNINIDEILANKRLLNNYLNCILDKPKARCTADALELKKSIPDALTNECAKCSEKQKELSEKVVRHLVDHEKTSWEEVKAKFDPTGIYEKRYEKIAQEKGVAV
FoccCSP-Val132Ala, sequence (G4Y3X1 entry or part of it V132A): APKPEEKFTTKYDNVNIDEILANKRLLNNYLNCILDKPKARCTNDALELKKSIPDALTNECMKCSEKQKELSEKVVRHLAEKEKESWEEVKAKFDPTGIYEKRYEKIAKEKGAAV
FintCSP1-Lys26Ala, sequence (A0A891LVF4 entry or part of it K26A): as the sequence (A0A891LVF4 entry or part of it F27A) above, with K7A, A8F counted along it
FintCSP1-Thr28Ala, sequence (A0A891LVF4 entry or part of it T28A): as the sequence (A0A891LVF4 entry or part of it F27A) above, with A8F, T9A counted along it
FintCSP1-Glu67Ala, sequence (A0A891LVF4 entry or part of it E67A): as the sequence (A0A891LVF4 entry or part of it F27A) above, with A8F, E48A counted along it

Take `CC/C=C\CC=O` [cis-3-hexenal]: the IC50 on FoccCSP-Val132Ala was 28.7 ± 0.12 µM; at FintCSP1-Thr28Ala, > 100 µM; on FintCSP1-Glu67Ala, > 100 µM; on FintCSP1-Lys26Ala, > 100 µM; at FintCSP1-Phe27Ala, 53.5 ± 3.07 µM. The Ki was determined as 23.69 ± 0.1 µM on FoccCSP-Val132Ala and 41.1 ± 2.36 µM at FintCSP1-Phe27Ala. In addition, the “binding to cis-3-hexenal (in words)” value at FoccCSP-Val132Ala (FoccCSP-Val132Ala compared to the wild-type protein) is listed as “only a minor change in binding”. The “affinity for cis-3-hexenal (in words)” value is reported as “no affinity” on FintCSP1-Thr28Ala (FintCSP1-Thr28Ala, competitive fluorescent assay); “no affinity” at FintCSP1-Glu67Ala (FintCSP1-Glu67Ala, competitive fluorescent assay); “no affinity” at FintCSP1-Lys26Ala (FintCSP1-Lys26Ala, competitive fluorescent assay); “weaker affinity” at FintCSP1-Phe27Ala (FintCSP1-Phe27Ala compared with wild-type FintCSP1).
